Results: US10471059B2, “Compositions and methods of using tyrosine kinase inhibitors” (YALE UNIVERSITY, priority 2015, dated 2019)
“Also recorded” adds a separate entry of the source.

Assays:
[1] = system: WT and Ptpn11^D61G/+ mice; assay: Liver damage (H&E histology, serum ALT) after postnatal dasatinib; details: postnatal 0.1 mg/kg/day; wild type or NS mice; monohydrate
Source text: All data present mean±SEM. *, p<0.05; ***, p<0.001. (n=7˜10 for each group; Two-way ANOVA test).
Histology—Heart, liver and spleen were isolated from vehicle- or dasatinib-treated wild type and NS mice. Tissues were fixed in 4% paraformaldehyde in phosphate-buffer saline (PBS), processed for paraffin sections and stained with hematoxylin and eosin (H&E) or Masson's Trichrome. Tissue images were obtained under bright field microscopy (Olympus BX51, Yale Liver Center).

[2] = system: WT and Ptpn11^D61G/+ mice; assay: Echocardiography, postnatal dasatinib treatment; format: in vivo; details: for % EF (ejection fraction) / % FS (fractional shortening) / IVS, d (Intraventricular septum wall thickness, diastole) / IVS, s (Intraventricular septum wall thickness, systole) / LV vol, d (left ventricle volume, diastole) / LV vol, s (left ventricle volume, systole) / LVID, d (left ventricular internal dimension, diastole) / LVID, s (left ventricular internal dimension, systole) / LVPW, d (left ventricular posterior wall thickness, diastole) / LVPW, s (left ventricular posterior wall thickness, systole): n = 6, Mean ± SEM
Protocol: Dasatinib Treatment—N-(2-chloro-6-methylphenyl)-2-[[6-[4-(2-hydroxyethyl)-1-piperazinyl]-2-methyl-4-pyrimidinyl]amino]-5-thiazole carboxamide monohydrate (dasatinib, BMS-354825) was purchased from Biovision. dasatinib was dissolved in DMSO at a concentration of 10 mg/ml, then resuspended in vehicle (1× Dulbecco's PBS) at a concentration of 200 μg/ml. […] And then, injection was continued or discontinued for 2 weeks, Vehicle-injected mice served as control, Body weight was measured weekly and echocardiography was performed at P42 (6-weeks) and P56 (8-weeks).
(§1) Vehicle-injected mice served as control.

[3] = system: WT and Ptpn11^D61G/+ mice; assay: Invasive hemodynamic study, postnatal dasatinib treatment; format: in vivo
Protocol: as §1
Hemodynamic Study—Anesthesia was induced by intraperitoneal injection of ketamine (100 mg/kg) and xylazine (5 mg/kg). The animal was placed on a warm pad and an incision was made on the neck. The right side carotid artery was exposed and a 1.9-French transducer-tipped catheter (Millar Inc., Houston, Tex.) was inserted into the artery, and then was advanced into left ventricle. Left ventricular pressures including high-fidelity positive, negative dp/dt and heart rate were measured under basal conditions. Data were recorded and analyzed by using LabChart software.

[4] = system: Ptpn11^Y279C/+ mice; assay: Quantitative RT-PCR of heart RNA, NSML mice, postnatal dasatinib; format: in vivo
Protocol: FIG. 25, comprising FIGS. 25a-25f, is a panel of graphs showing the improvement in molecular markers of cardiomyopathy and fibrosis in NSML (Y279C/+) mice following dasatinib treatment. Total heart RNA was isolated from postnatal vehicle- or dasatinib-treated (0.1 mg/kg/day) WT and Ptpn11^Y279C/+ mice (P42). Fibrosis marker genes, Col1a2 (FIG. 25a) and Col3a1 (FIG. 25b), markers of cardiomyopathy ANP (FIG. 25c) and cardiac fetal genes, Myh6 (αMHC) (FIG. 25d), Myh7 (bMHC) (FIG. 25e), and Myh6/Myh7 ratio (FIG. 25f) were measured by quantitative RT-PCR (n=6 for each group). All data represent mean±SEM. *, p<0.05; **, p<0.01; ***, p<0.001. (Two-way ANOVA test).
RNA Extraction and Quantitative Real-Time PCR Analysis—RNA was isolated from mice heart using an RNeasy kit (Qiagen, CA) according to the manufacturer's instructions. A total of 1 μg RNA was reverse transcribed to generate cDNA using a reverse transcriptase PCR kit (Applied Biosystems, CA). Real-time quantitative PCR was carried out in triplicate using the Applied Biosystems 7500 Fast real-time PCR system and SYBR green gene expression master mix with following primer pairs.
The data presented in FIGS. 25a-25f represents dasatinib treatment starting at post-natal day 10 (P10) for 6 weeks (P42) in wild type (WT) and NSML (Ptpn11^Y279C/+) mice. Ptpn11^Y279C/+ were obtained from Dr. Kontaridis (Beth Israel Deaconess Hospital, Boston, Mass.) and bred as described (Marin, et al, J Clin. Invest., 121:1026-1043(2011)). Mice were treated with either vehicle or dasatinib at a dose of 0.1 mg/kg/day for 6 weeks […]. At the completion of the study, wild type and Ptpn11^Y279C/+ mice were sacrificed and total RNA from the hearts was isolated and qPCR was performed for the detection of mRNA expression for genes involved in the development of cardiomyopathy, Myh6 and Myh7 and the development of cardiac fibrosis, col1a2 and Col3a1.

[5] = system: Ptpn11^D61G/+ mice; assay: Heart weight and histology (Masson's trichrome) after postnatal dasatinib; format: in vivo; details: NS mice
Protocol: FIG. 15, comprising FIG. 15a-15j, is a panel of images showing cardiomyopathy and cardiac fibrosis in Ptpn11^D61G/+ mice rescued by dasatinib. […] FIG. 15e is a graph showing relative expression of fibrosis marker gene, Col1a2. […] FIG. 15f is a graph showing relative expression of fibrosis marker gene, Col3a1. FIG. 15g is a graph showing relative expression of cardiac fetal gene, Myh6 (αMHC). FIG. 15h is a graph showing relative expression of cardiac fetal gene, Myh7 (βMHC). FIG. 15i is a graph showing relative expression of cardiac fetal gene, Anf. FIG. 15j is a graph showing relative expression of cardiac fetal gene, Bnp. The genes were measured by quantitative RT-PCR (n=6 for each group). […] (Two-way ANOVA test).

[6] = postnatal 0.1 mg/kg/day i.p. P10 to P42, then discontinued 2 weeks, Ptpn11D61G/+ mice, P56
[7] = postnatal 0.1 mg/kg/day i.p. P10 to P42, then discontinued 2 weeks, WT mice, P56
[8] = postnatal 0.1 mg/kg/day i.p. from P10, Ptpn11D61G/+ mice, P42
[9] = postnatal 0.1 mg/kg/day i.p. from P10, WT mice, P42
[10] = Ptpn11D61G/+ mice, P56, n = 9, Mean ± SEM
[11] = WT mice, P56, n = 8, Mean ± SEM
[12] = postnatal 0.1 mg/kg/day from P10 for 6 weeks, Ptpn11Y279C/+ mice

Question: For Cc1nc(Nc2ncc(C(=O)Nc3c(C)cccc3Cl)s2)cc(N2CCN(CCO)CC2)n1.O [Dasatinib, N-(2-chloro-6-methylphenyl)-2-[[6-[4-(2-hydroxyethyl)-1-piperazinyl]-2-methyl-4-pyrimidinyl]amino]-5-thiazole carboxamide monohydrate], which liver damage [1] is on record?
Answer: no evidence of liver damage; also recorded: does not induce liver damage

Question: And the “fold lower than therapeutic dose” value ([2]; 0.1 mg/kg versus therapeutic dose)?
Answer: about 200 fold

Question: What about the “dose sufficient to treat CHD-associated cardiac disease” value ([2]; mice) of the same compound?
Answer: 0.1 mg/kg

Question: And the “cardiac function after cessation of treatment” value ([2]; postnatal 0.1 mg/kg/day P10 to P42, discontinued 2 weeks, NS mice, P56, monohydrate)?
Answer: preserved improvement of cardiac function; also recorded: continued preservation of cardiac function

Question: And the “cardiac function (EF and FS)” value ([2]; postnatal 0.1 mg/kg/day from P10, NS mice, P42, monohydrate)?
Answer: improves cardiac function; also recorded: complete corrective functionality; also recorded: completely restored cardiac functionality

Question: What about the “% EF (ejection fraction)” value [2, 6] of the same compound?
Answer: 64.71 ± 1.67 %

Question: What about the “% FS (fractional shortening)” value [2, 6] of the same compound?
Answer: 34.92 ± 1.23 %

Question: And the “IVS, d (Intraventricular septum wall thickness, diastole)” value (from here on “IVS, d”) [2, 6]?
Answer: 0.72 ± 0.04 mm

Question: What about the “IVS, s (Intraventricular septum wall thickness, systole)” value (“IVS, s” for short) [2, 6] of the same compound?
Answer: 1.18 ± 0.05 mm

Question: What about the “LV vol, d (left ventricle volume, diastole)” value (“LV vol, d” below) [2, 6] of the same compound?
Answer: 65.60 ± 2.44 mm^3

Question: And the “LV vol, s (left ventricle volume, systole)” value (from here on “LV vol, s”) [2, 6]?
Answer: 24.85 ± 1.68^† mm^3

Question: What about the “LVID, d (left ventricular internal dimension, diastole)” value (from here on “LVID, d”) [2, 6] of the same compound?
Answer: 3.93 ± 0.08 mm

Question: And the “LVID, s (left ventricular internal dimension, systole)” value (shortened to “LVID, s”) [2, 6]?
Answer: 2.60 ± 0.07 mm

Question: And the “LVPW, d (left ventricular posterior wall thickness, diastole)” value (shortened to “LVPW, d”) [2, 6]?
Answer: 0.65 ± 0.03 mm

Question: And the “LVPW, s (left ventricular posterior wall thickness, systole)” value (from here on “LVPW, s”) [2, 6]?
Answer: 1.19 ± 0.05 mm

Question: What about the “% EF (ejection fraction)” value [2, 7] of the same compound?
Answer: 65.89 ± 1.74%

Question: What about the “% FS (fractional shortening)” value [2, 7] of the same compound?
Answer: 36.63 ± 1.20%

Question: What about the “IVS, d” value [2, 7] of the same compound?
Answer: 0.69 ± 0.03 mm

Question: And the “IVS, s” value [2, 7]?
Answer: 1.19 ± 0.06 mm

Question: And the “LV vol, d” value [2, 7]?
Answer: 64.06 ± 2.65 mm^3

Question: What about the “LV vol, s” value [2, 7] of the same compound?
Answer: 23.06 ± 2.21 mm^3

Question: What about the “LVID, d” value [2, 7] of the same compound?
Answer: 3.92 ± 0.09 mm

Question: What about the “LVID, s” value [2, 7] of the same compound?
Answer: 2.52 ± 0.10 mm

Question: And the “LVPW, d” value [2, 7]?
Answer: 0.80 ± 0.06 mm

Question: And the “LVPW, s” value [2, 7]?
Answer: 1.18 ± 0.05 mm

Question: And the “% EF (ejection fraction)” value [2, 8]?
Answer: 60.93 ± 2.06 %

Question: What about the “% FS (fractional shortening)” value [2, 8] of the same compound?
Answer: 33.08 ± 1.33 %

Question: And the “IVS, d” value [2, 8]?
Answer: 0.66 ± 0.05 mm

Question: What about the “IVS, s” value [2, 8] of the same compound?
Answer: 1.04 ± 0.07 mm

Question: What about the “LV vol, d” value [2, 8] of the same compound?
Answer: 57.35 ± 2.19 mm^3

Question: And the “LV vol, s” value [2, 8]?
Answer: 24.67 ± 1.18 mm^3

Question: And the “LVID, d” value [2, 8]?
Answer: 3.63 ± 0.07 mm

Question: What about the “LVID, s” value [2, 8] of the same compound?
Answer: 2.50 ± 0.08 mm

Question: And the “LVPW, d” value [2, 8]?
Answer: 0.71 ± 0.03 mm

Question: What about the “LVPW, s” value [2, 8] of the same compound?
Answer: 1.09 ± 0.06 mm

Question: What about the “% EF (ejection fraction)” value [2, 9] of the same compound?
Answer: 65.70 ± 0.82%

Question: What about the “% FS (fractional shortening)” value [2, 9] of the same compound?
Answer: 35.52 ± 0.69%

Question: And the “IVS, d” value [2, 9]?
Answer: 0.71 ± 0.05 mm

Question: And the “IVS, s” value [2, 9]?
Answer: 1.13 ± 0.06 mm

Question: And the “LV vol, d” value [2, 9]?
Answer: 65.87 ± 2.78 mm^3

Question: And the “LV vol, s” value [2, 9]?
Answer: 22.24 ± 0.63 mm^3

Question: And the “LVID, d” value [2, 9]?
Answer: 3.80 ± 0.11 mm

Question: What about the “LVID, s” value [2, 9] of the same compound?
Answer: 2.45 ± 0.05 mm

Question: What about the “LVPW, d” value [2, 9] of the same compound?
Answer: 0.81 ± 0.04 mm

Question: And the “LVPW, s” value [2, 9]?
Answer: 1.25 ± 0.07 mm

Question: What about the “aortic blood pressure and left ventricular pressure” value ([3]; NS mice, P56) of the same compound?
Answer: significantly restored

Question: And the “+dp/dt” value [3, 10]?
Answer: 7718 ± 498 mmHg/s

Question: What about the Diastolic pressure [3, 10] of the same compound?
Answer: 84.0 ± 3.5 mmHg

Question: What about the End diastolic pressure [3, 10] of the same compound?
Answer: 11.1 ± 0.7 mmHg

Question: And the Left ventricle pressure [3, 10]?
Answer: 127.9 ± 4.5 mmHg

Question: What about the Mean arterial pressure [3, 10] of the same compound?
Answer: 96.8 ± 4.2 mmHg

Question: What about the Pulse pressure [3, 10] of the same compound?
Answer: 63.7 ± 4.4 mmHg

Question: And the Systolic pressure [3, 10]?
Answer: 129.3 ± 6.2 mmHg

Question: What about the “−dp/dt” value [3, 10] of the same compound?
Answer: −6189 ± 626 mmHg/s

Question: What about the “+dp/dt” value [3, 11] of the same compound?
Answer: 8626 ± 476 mmHg/s

Question: And the Diastolic pressure [3, 11]?
Answer: 95.1 ± 4.2 mmHg

Question: What about the End diastolic pressure [3, 11] of the same compound?
Answer: 8.7 ± 1.3 mmHg

Question: What about the Left ventricle pressure [3, 11] of the same compound?
Answer: 136.5 ± 2.5 mmHg

Question: What about the Mean arterial pressure [3, 11] of the same compound?
Answer: 112.1 ± 4.0 mmHg

Question: What about the Pulse pressure [3, 11] of the same compound?
Answer: 65.2 ± 4.6 mmHg

Question: What about the Systolic pressure [3, 11] of the same compound?
Answer: 146.2 ± 5.1 mmHg

Question: What about the “−dp/dt” value [3, 11] of the same compound?
Answer: −6529 ± 847 mmHg/s

Question: And the “molecular markers of cardiomyopathy and fibrosis” value ([4]; 0.1 mg/kg/day, NSML (Y279C/+) mice)?
Answer: improvement

Question: And the “expression of ANP, Myh6 and Myh7” value [4, 12]?
Answer: complete restoration back to wild type levels

Question: And the “ratio of Myh6/Myh7” value [4, 12]?
Answer: restored to wild type levels

Question: And the “cardiac fibrosis at the histological level” value ([5]; P56)?
Answer: markedly reduced

Question: And the “pathologic cardiac phenotypes (heart weight, dilated cardiomyopathy, myofibrillar disorganization)” value ([5]; P56, monohydrate)?
Answer: profound reversal; also recorded: rescued
